Here are results for six molecules from US7947741B2, “Use and administration of bacterial efflux pump inhibitors” (Mpex Pharmaceuticals, Inc., priority 2004, dated 2011).

Each structure is given as a SMILES string. In brackets after ≈: the same amount, converted by molar mass. Where two headings read alike, the source gives them in different places. Where a SMILES comes first, the peptide text is derived from it. Bridges are numbered along the chain shown (N, C = ends). [ ]: non-standard residue; d: D form. Dab = NCC[C@H](N)C(=O)O Bounds are passed on as bounds.

The test system of one data set is PAM1723 cells. Briefly: EtBr uptake (proton gradient disruption). The class given is cell-based, Pseudomonas aeruginosa. To be noted: CCCP 50 μg/ml for 15 minutes, pentamidine 80 μg/ml. As for the experimental part:
A proton gradient is necessary for efflux pump activity. Accordingly, compounds that are capable of proton gradient disruption will appear as efflux inhibitors in accumulation assays. This possibility was tested for pentamidine. EtBr is a substrate of the MexAB-OprM efflux pump from P. aeruginosa as evident from the differential rates of its uptake in PAM 1723 and PAM 1626, MexAB-OprM overexpressing or lacking strains, respectively. CCCP is a well-known protonophore, which rapidly dissipates the proton gradient.

For data set [1], the system named is P. aeruginosa PAM2466 (MexAB-OprM, MexXY-OprM). Description: microbe, parasite or virus in culture. To be noted: Pseudomonas aeruginosa. The class given is cell-based, Pseudomonas aeruginosa. As for the experimental part: (§1) A set of strains that simultaneously over-expressed pairs or triplicates of pumps, e.g. PAM2302 and PAM2303 was tested. Simultaneous over-expression of efflux pumps has been recently detected in clinical strains.

Data set [2] concerns P. aeruginosa PAM2282 (MexAB-OprM, MexEF-OprN). Briefly: microbe, parasite or virus in culture. The class given is cell-based, Pseudomonas aeruginosa. Conditions: Pseudomonas aeruginosa. Here is the method: as §1
Data set [3] concerns P. aeruginosa PAM2281 (MexAB-OprM, MexEF-OprN). Description: microbe, parasite or virus in culture. Format: cell-based, Pseudomonas aeruginosa. Conditions: Pseudomonas aeruginosa. Here is the method: as §1
Data set [4] concerns P. aeruginosa PAM1438 (MexAB-OprM, MexCD-OprJ). Briefly: microbe, parasite or virus in culture. The class given is cell-based, Pseudomonas aeruginosa. Conditions: Pseudomonas aeruginosa. Here is the method:
as §1

For data set [5], the system named is P. aeruginosa PAM2302 (MexAB-OprM, MexCD-OprJ, MexEF-OprN). Description: microbe, parasite or virus in culture. The class given is cell-based, Pseudomonas aeruginosa. To be noted: Pseudomonas aeruginosa. As for the experimental part: as §1
Data set [6] relates to P. aeruginosa PAM1723 (MexAB-OprM overexpressed). The class given is cell-based, Pseudomonas aeruginosa. Conditions: for MIC, No Pentamidine / MIC, Pentamidine (40 μg/ml): PAM1723 (MexAB-OprM overexpressed); for MIC, Pentamidine (40 μg/ml): in the presence of pentamidine 40 μg/ml.
The test system of data set [7] is P. aeruginosa PAM1491 (MexEF-OprN; gyrA (Asp87Tyr)). Briefly: microbe, parasite or virus in culture. The class given is cell-based, Pseudomonas aeruginosa. Conditions: Pseudomonas aeruginosa. From the text: (§2) In addition to increased efflux, resistance to fluoroquinolones may be due to target mutations (gyrase and topoisimerase IV) or due to combination of these two resistance mechanisms in a single bacterial cell.

In data set [8] the test system is P. aeruginosa PAM1570 (MexEF-OprN; gyrA (Thr83Ile)). Description: microbe, parasite or virus in culture. The class given is cell-based, Pseudomonas aeruginosa. Conditions: Pseudomonas aeruginosa.
Description: as §2

The test system of data set [9] is P. aeruginosa PAM1482 (MexCD-OprJ; gyrA (Asp87Tyr)). Briefly: microbe, parasite or virus in culture. Format: cell-based, Pseudomonas aeruginosa. To be noted: Pseudomonas aeruginosa.
Description: as §2

The test system of data set [10] is P. aeruginosa PAM1569 (MexCD-OprJ; gyrA (Thr83Ile)). Description: microbe, parasite or virus in culture. The class given is cell-based, Pseudomonas aeruginosa. Conditions: Pseudomonas aeruginosa.
Description: as §2

Data set [11] has as its system P. aeruginosa PAM1548 (pump status none; gyrA (Thr83Ile)). Briefly: microbe, parasite or virus in culture. Format: cell-based, Pseudomonas aeruginosa. To be noted: Pseudomonas aeruginosa.
Description: as §2

Data set [12] deals with P. aeruginosa PAM1034 (MexEF-OprN). Description: microbe, parasite or virus in culture. Format: cell-based, Pseudomonas aeruginosa. Conditions: Pseudomonas aeruginosa.
Description: as §2

The subject of data set [13] is P. aeruginosa PAM1032 (MexAB-OprM). Briefly: microbe, parasite or virus in culture. The class given is cell-based, Pseudomonas aeruginosa. To be noted: Pseudomonas aeruginosa.
Description: as §2

Data set [14] has as its system P. aeruginosa PAM1033 (MexCD-OprJ). Briefly: microbe, parasite or virus in culture. Format: cell-based, Pseudomonas aeruginosa. Conditions: Pseudomonas aeruginosa.
Description: as §2

The test system of data set [15] is P. aeruginosa PAM1020 (pump status none; target mutation none). Description: microbe, parasite or virus in culture. Format: cell-based, Pseudomonas aeruginosa. To be noted: Pseudomonas aeruginosa.
Description: as §2

Data set [16] relates to P. aeruginosa PAM1154 (MexAB-OprM deleted). Format: cell-based, Pseudomonas aeruginosa.
Data set [17] deals with 108 recent clinical isolates of P. aeruginosa obtained from cystic fibrosis patients. Briefly: Susceptibility of cystic fibrosis clinical isolates (broth-micro-dilution, NCCLS). Format: cell-based, Pseudomonas aeruginosa. Conditions: 108 CF isolates; combinations with 20 μg/ml of pentamidine. (Dilution methods test growth across graded concentrations, often in twofold steps.)

Data set [18] deals with P. aeruginosa PAM1723 (nalB, overexpressing MexAB-OprM). Briefly: microbe, parasite or virus in culture. Conditions: Pseudomonas aeruginosa, read-out: Levofloxacin MIC in the presence of inhibitor, PAM1723; inhibitor 0 μg/ml. Format: cell-based, Pseudomonas aeruginosa. As for the experimental part:
Stock solutions were further diluted, according to the needs of a particular assay, in Mueller Hinton Broth (MHB). Stock solution was stored at −80° C.
The checkerboard assay was performed in microtiter plates. […] The result of these manipulations is that each well of the microtiter plate contains a unique combination of concentrations of the two agents. The assay was performed in MHB with a final bacterial inoculum of 5×10^5 CFU/ml (from an early-log phase culture). Microtiter plates were incubated during 20 h at 35° C. and were read using a microtiterplate reader (Molecular Devices) at 650 nm as well as visual observation using a microtiter plate reading mirror.
The test organisms used was PAM1020, which is a wild type strain of P. aeruginosa expressing the basal level of MexAB-OprM, as well as PAM1723, PAM1738, and PAM1753, overexpressing the MexAB-OprM, MexCD-OprJ, and MexEF-OprN pump, respectively.
Efflux pump inhibitory activity of several commercially available diamidine analogs was evaluated using the checkerboard assay of Example 1 against the strain of P. aeruginosa overexpressing the MexAB-OprM efflux pump.

Data set [19] deals with outer membrane of P. aeruginosa strain PAM2005. Conditions: Mg2+ free buffer, nitrocefin 64 μg/ml.
For data set [20] the following is noted: intravenous infusion; cited from earlier work.
The mark [21] stands for this setting: read-out: Ciprofloxacin MIC w/o pentamidine.
The mark [22] stands for this setting: read-out: Levofloxacin MIC w/o pentamidine.

For `N#CC(C#N)=NNc1cccc(Cl)c1` [CCCP], in the data set on PAM1723 cells, the EtBr uptake entry is “dramatic increase of EtBr uptake”.

For `O=C(O)c1cn(C2CC2)c2cc(N3CCNCC3)c(F)cc2c1=O` [Ciprofloxacin, ciprofloxacin], the MIC turned out to be 0.5 µg/mL (≈ 1.51 µM) in data set [1] (setting [21]); 2 µg/mL (≈ 6.04 µM) in [2] (setting [21]); 8 µg/mL (≈ 24.1 µM) in [3] (setting [21]); 16 µg/mL (≈ 48.3 µM) in data set [4] (setting [21]); 2 µg/mL (≈ 6.04 µM) in data set [5] (setting [21]); 8 µg/mL in data set [7] (setting [21]). Further, the MIC in data set [8] (setting [21]) was determined as 16 µg/mL; in data set [9] (setting [21]) it was 8 µg/mL; in data set [10] (setting [21]) it was 16 µg/mL; in data set [11] (setting [21]), 2 µg/mL; in [12] (setting [21]), 1 µg/mL; in [13] (setting [21]) it was 0.5 µg/mL. For the same molecule, the MIC in [14] (setting [21]) was found to be 1 µg/mL; in [15] (setting [21]), 0.06 µg/mL. For the same molecule, the MIC, No Pentamidine in data set [6] stood at 0.25 µg/mL (≈ 0.754 µM); in data set [16], 0.008 µg/mL (≈ 0.0241 µM). Also, the “MIC, Pentamidine (40 μg/ml)” value in data set [6] is given as 0.03. Further, the “decrease of the MIC by pentamidine” value in [6] (PAM1723, pentamidine 40 μg/ml) is recorded as 8 fold.

As to `C[C@H]1COc2c(N3CCN(C)CC3)c(F)cc3c(=O)c(C(=O)O)cn1c23` [Levofloxacin, levofloxacin], the MIC in data set [1] (setting [22]) was 2 µg/mL (≈ 5.53 µM); in data set [2] (setting [22]), 8 µg/mL (≈ 22.1 µM); in data set [3] (setting [22]), 8 µg/mL (≈ 22.1 µM); in data set [4] (setting [22]), 4 µg/mL (≈ 11.1 µM); in data set [5] (setting [22]), 8 µg/mL (≈ 22.1 µM); in data set [7] (setting [22]), 32 µg/mL. Also, the MIC in [8] (setting [22]) was determined as 32 µg/mL; in data set [9] (setting [22]), 16 µg/mL; in data set [10] (setting [22]) it was 32 µg/mL; in data set [11] (setting [22]), 2 µg/mL; in data set [12] (setting [22]), 4 µg/mL; in data set [13] (setting [22]) it was 2 µg/mL. Moreover, the MIC in data set [14] (setting [22]) came out at 4 µg/mL; in data set [15] (setting [22]), 0.25 µg/mL; in data set [18], 2 µg/mL. For the same molecule, the MIC50 in [17] came to 2 µg/mL. Besides, the MIC90 in data set [17] was 8 µg/mL.

`CC(C)C[C@@H]1NC(=O)[C@@H](Cc2ccccc2)NC(=O)[C@H](CCN)NC(=O)[C@@H](NC(=O)[C@H](CCN)NC(=O)[C@@H](N)[C@@H](C)O)CCNC(=O)[C@H]([C@@H](C)O)NC(=O)[C@H](CCN)NC(=O)[C@H](CCN)NC1=O` [PMBN] (H-T[Dab][Dab][Dab][dF]L[Dab][Dab]T; lactam 3-C; N-terminus assumed): the “IC50, permeabilization of the outer membrane” value in [19] was under 2 µg/mL.

`NC[C@H]1O[C@H](O[C@H]2[C@H](O)[C@@H](O[C@H]3O[C@H](CO)[C@@H](O)[C@H](N)[C@H]3O)[C@H](N)C[C@@H]2N)[C@H](N)C[C@@H]1O` [Tb, tobramycin]: in data set [6], the “decrease of the MIC by pentamidine” value is on record as “almost no effect”; the MIC, No Pentamidine was determined as 0.06 µg/mL (≈ 0.128 µM); the “MIC, Pentamidine (40 μg/ml)” value is given as 0.03. For the same molecule, the MIC, No Pentamidine in data set [16] was determined as 0.03 µg/mL (≈ 0.0642 µM).

Regarding `N=C(N)c1ccc(OCCCCCOc2ccc(C(=N)N)cc2)cc1` [pentamidine isethionate, 4,4′-diamidino-diphenoxypentane di(β-hydroxyethanesulfonate)], the “plasma levels during the first two hours following an intravenous infusion” value in data set [20] is “one-twentieth of peak levels”.

The MIC50 is an inhibitory concentration at the 50% level, which refers to growth in some studies and to a panel of isolates in others. Usually MIC90 stands for the lowest concentration that inhibits either 90% of growth or 90% of the strains tested, depending on the study.
